Assays:
[1] = tested on: Mus musculus; assay: Anticonvulsant activity in Mus musculus Swiss albino (mouse) assessed as protection against pentylenetetrazole-induced seizures at 100 mg/kg, ip administered 1 hr prior to pentylenetetrazole-challenge measured up to 1 hr relative to control; type: functional; conditions: route intraperitoneal
[2] = tested on: Mus musculus; assay: Anticonvulsant activity in Mus musculus Swiss albino (mouse) assessed as protection against pentylenetetrazole-induced seizures at 75 mg/kg, ip administered 1 hr prior to pentylenetetrazole-challenge measured up to 1 hr relative to control; type: functional; conditions: route intraperitoneal
[3] = tested on: Mus musculus; assay: Anticonvulsant activity in Mus musculus Swiss albino (mouse) assessed as protection against pentylenetetrazole-induced seizures at 50 mg/kg, ip administered 1 hr prior to pentylenetetrazole-challenge measured up to 1 hr relative to control; type: functional; conditions: route intraperitoneal
[4] = tested on: Mus musculus; assay: Anticonvulsant activity in ip dosed Mus musculus Swiss albino (mouse) assessed as protection against pentylenetetrazole-induced seizures administered 1 hr prior to pentylenetetrazole-challenge measured up to 1 hr relative to phenobarbital; type: functional
[5] = tested on: Mus musculus; assay: Anticonvulsant activity in ip dosed Mus musculus Swiss albino (mouse) assessed as protection against pentylenetetrazole-induced seizures administered 1 hr prior to pentylenetetrazole-challenge measured up to 1 hr; type: functional; conditions: read-out: PD50
[6] = tested on: Mus musculus; assay: Toxicity in Mus musculus albino (mouse) assessed as mortality at 600 to 2400 mg/kg, ip after 24 hr; type: organism-based; design: dose 600-2400 mg/kg, route intraperitoneal; conditions: in vivo
[7] = tested on: Mus musculus; assay: Toxicity in Mus musculus albino (mouse) assessed as mortality at 300 mg/kg, ip after 24 hr; type: organism-based; design: dose 300 mg/kg, route intraperitoneal; conditions: in vivo
[8] = Toxicity in ip dosed Mus musculus albino (mouse) after 24 hr; type: organism-based; conditions: in vivo
[9] = tested on: Mus musculus; assay: Anticonvulsant activity in Mus musculus Swiss albino (mouse) assessed as protection against pentylenetetrazole-induced seizures at 10 mg/kg, ip administered 1 hr prior to pentylenetetrazole-challenge measured up to 1 hr relative to control; type: functional; conditions: route intraperitoneal
[10] = tested on: Mus musculus; assay: Toxicity in Mus musculus albino (mouse) assessed as mortality at 160 to 400 mg/kg, ip after 24 hr; type: organism-based; design: dose 160-400 mg/kg, route intraperitoneal; conditions: in vivo
[11] = tested on: Mus musculus; assay: Toxicity in Mus musculus albino (mouse) assessed as mortality at 100 mg/kg, ip after 24 hr; type: organism-based; design: dose 100 mg/kg, route intraperitoneal; conditions: in vivo
[12] = tested on: Mus musculus; assay: Anticonvulsant activity in Mus musculus Swiss albino (mouse) assessed as protection against pentylenetetrazole-induced seizures at 30 mg/kg, ip administered 1 hr prior to pentylenetetrazole-challenge measured up to 1 hr relative to control; type: functional; conditions: route intraperitoneal
[13] = tested on: Mus musculus; assay: Anticonvulsant activity in Mus musculus Swiss albino (mouse) assessed as protection against pentylenetetrazole-induced seizures at 20 mg/kg, ip administered 1 hr prior to pentylenetetrazole-challenge measured up to 1 hr relative to control; type: functional; conditions: route intraperitoneal

SMILES	Activity [1]	Activity [2]	Activity [3]	Activity [4]	ED50 [5]	Activity [6]	Activity [7]	LD50 at 24 h [8]	Activity [9]	Activity [10]	Activity [11]	Activity [12]	Activity [13]
N#Cc1c(NC(=O)CCCCl)c(C(=O)Nc2ccc(Cl)cc2)n2c1CCC2	40%	40%	20%	19.7%	117 mg/kg								
N#Cc1c(N2CCCC2=O)c(C(=O)Nc2ccccc2)n2c1CCC2	0%	20%	60%	34.2%	55.6 mg/kg								
Cc1ccc(NC(=O)c2c(N3CCCC3=O)c(C#N)c3n2CCC3)cc1	0%	0%	40%	67.9%	29.2 mg/kg	Toxic	Non-toxic	1010 mg/kg					
N#Cc1c(N2CCCC2=O)c(C(=O)Nc2ccc(Cl)cc2)n2c1CCC2	0%	20%	40%	55.8%	37.5 mg/kg								
N#Cc1c(NC(=O)CCl)c(C(=O)Nc2ccccc2)n2c1CCC2	40%	20%	0%	17.3%	112 mg/kg								
Cc1ccc(NC(=O)c2c(NC(=O)CCl)c(C#N)c3n2CCC3)cc1	40%	40%	20%	17.4%	117 mg/kg								
N#Cc1c(NC(=O)CCl)c(C(=O)Nc2ccc(Cl)cc2)n2c1CCC2	60%	40%	0%	24.1%	88.9 mg/kg								
N#Cc1c2c(n3c1CCC3)C(=O)N(c1ccccc1)CC(=O)N2	40%	40%	20%	14.9%	117 mg/kg								
Cc1ccc(N2CC(=O)Nc3c(C#N)c4n(c3C2=O)CCC4)cc1	20%	20%	0%	10.9%	167 mg/kg								
N#Cc1c2c(n3c1CCC3)C(=O)N(c1ccc(Cl)cc1)CC(=O)N2	20%	0%	0%	10.6%	183 mg/kg								
CN1C(=O)CN(c2ccccc2)C(=O)c2c1c(C#N)c1n2CCC1	40%	20%	0%	16.2%	112 mg/kg								
Cc1ccc(N2CC(=O)N(C)c3c(C#N)c4n(c3C2=O)CCC4)cc1	20%	20%	0%	11.4%	167 mg/kg								
CN1C(=O)CN(c2ccc(Cl)cc2)C(=O)c2c1c(C#N)c1n2CCC1	40%	20%	20%	15.1%	133 mg/kg								
N#Cc1c(NC(=O)CCCCl)c(C(=O)Nc2ccccc2)n2c1CCC2	60%	40%	0%	23.7%	88.9 mg/kg								
Cc1ccc(NC(=O)c2c(NC(=O)CCCCl)c(C#N)c3n2CCC3)cc1	40%	20%	0%	19.4%	112 mg/kg								
CCC1(c2ccccc2)C(=O)NC(=O)NC1=O [PHENOBARBITAL]					14.4 mg/kg			251 mg/kg	40%	Toxic	Non-toxic	100%	60%

From ChEMBL document CHEMBL3045469, “Design, synthesis and preliminary evaluation of some novel [1,4]diazepino [5,6-b]pyrrolizine and 6-(2-oxopyrrolidino)-1H-pyrrolizine derivatives as anticonvulsant agents” (Med Chem Res, 2011)
